Reference: publication PMC4503722, “Novel Phenotypic Outcomes Identified for a Public Collection of Approved Drugs from a Publicly Accessible Panel of Assays” (PLoS ONE, 2015)
Where two headings read alike, the source gives them in different places.

How the values were obtained:
[1] = tested on: endothelial tube formation in co-cultures of ECFCs and ADSCs treated with VEGF; experiment: cells; format: cell-based, human
[2] = tested on: DLD-1; experiment: cells; format: cell-based
[3] = tested on: HCT116; experiment: cells; format: cell-based
[4] = tested on: HCT116 cells treated with a GSK3β inhibitor; experiment: cells; format: cell-based
[5] = tested on: Colo320; experiment: cells; format: cell-based
[6] = tested on: HT-29; experiment: cells; format: cell-based
[7] = tested on: RKO; experiment: cells; format: cell-based
[8] = tested on: SNU-C1; experiment: cells; format: cell-based
[9] = tested on: ECFC/ADSC co-culture cell nuclei number
[10] = tested on: HeLa cells; experiment: cells; format: cell-based
[11] = tested on: SW480; experiment: cells; format: cell-based
[12] = assay number 26, GSK3b inhibitor pretreated

Structure (SMILES): Cc1ccc2c(Br)cc(Br)c(O)c2n1 [NCGC00160566-02]
- IC50 ([1]; read-out: VEGF_ADSC\ECFC Angio CD31 TubeArea summarized IC50): > 10 µM
- IC50 ([2]; assay number 23, basal, read-out: Basal_Viability ATP DLD-1 summarized IC50): 4.77 µM
- IC50 ([3]; assay number 25, basal, read-out: Basal_Viability ATP HCT116 summarized IC50): 1.16 µM
- IC50 ([4]; assay number 26, GSK3b inhibitor pretreated, read-out: GSK3b inh pretreated_Viability ATP HCT116 summarized IC50): 1.03 µM
- IC50 ([5]; assay number 27, basal, read-out: Basal_Viability ATP Colo 320 summarized IC50): 0.001 µM
- IC50 ([6]; assay number 28, basal, read-out: Basal_Viability ATP HT-29 summarized IC50): > 6.67 µM
- IC50 ([7]; assay number 29, basal, read-out: Basal_Viability ATP RKO summarized IC50): 0.311 µM
- IC50 ([8]; assay number 30, basal, read-out: Basal_Viability ATP SNU-C1 summarized IC50): 12.8 µM
- IC50 ([9]; read-out: VEGF_ADSC\ECFC Angio Hoechst NucArea summarized IC50): > 10 µM

Structure (SMILES): CN1CCC(Nc2ncc3ncnc(Nc4ccc(F)c(Cl)c4)c3n2)CC1 [NCGC00161422-04]
- Hela CellCycMod PI 2N IC50/EC50 ([10]; assay number 14, 2N): > 10 µM
- Hela CellCycMod PI 4N IC50/EC50 ([10]; assay number 16, 4N): > 10 µM
- Hela CellCycMod PI MI IC50/EC50 ([10]; assay number 17, MI): > 10 µM
- Hela CellCycMod PI Cell Number IC50/EC50 ([10]; assay number 18, cell number): > 10 µM
- Basal_Viability ATP DLD-1 IC50/EC50 ([2]; assay number 23): 2.292 µM
- Basal_Viability ATP SW480 IC50/EC50 ([11]; assay number 24): 2.346 µM
- Basal_Viability ATP HCT116 IC50/EC50 ([3]; assay number 25, basal): > 20 µM
- GSK3b inh pretreated_Viability ATP HCT116 IC50/EC50 [4, 12]: 3.384 µM
- Basal_Viability ATP Colo 320 IC50/EC50 ([5]; assay number 27): 11.6683 µM
- Basal_Viability ATP HT-29 IC50/EC50 ([6]; assay number 28): 4.003 µM
- Basal_Viability ATP RKO IC50/EC50 ([7]; assay number 29): 3.167 µM
- Basal_Viability ATP SNU-C1 IC50/EC50 ([8]; assay number 30): 11.9566 µM

Structure (SMILES): Cl.O=C1[C@H]2CCCC[C@H]2C(=O)N1CCCCN1CCN(c2nsc3ccccc23)CC1 [NCGC00164567-02]
- Hela CellCycMod PI 2N IC50/EC50 ([10]; assay number 14, 2N): > 10 µM
- Hela CellCycMod PI S Phase IC50/EC50 ([10]; assay number 15, S phase): > 10 µM
- Hela CellCycMod PI 4N IC50/EC50 ([10]; assay number 16, 4N): > 10 µM
- Hela CellCycMod PI MI IC50/EC50 ([10]; assay number 17, MI): > 10 µM
- Hela CellCycMod PI Cell Number IC50/EC50 ([10]; assay number 18, cell number): > 10 µM
- Basal_Viability ATP DLD-1 IC50/EC50 ([2]; assay number 23): 8.238 µM
- Basal_Viability ATP SW480 IC50/EC50 ([11]; assay number 24): 5.9082 µM
- Basal_Viability ATP HCT116 IC50/EC50 ([3]; assay number 25, basal): 2.0649 µM
- GSK3b inh pretreated_Viability ATP HCT116 IC50/EC50 [4, 12]: 1.6729 µM
- Basal_Viability ATP Colo 320 IC50/EC50 ([5]; assay number 27): 13.2075 µM
- Basal_Viability ATP HT-29 IC50/EC50 ([6]; assay number 28): 2.0058 µM
- Basal_Viability ATP RKO IC50/EC50 ([7]; assay number 29): 0.5459 µM
- Basal_Viability ATP SNU-C1 IC50/EC50 ([8]; assay number 30): 9.3713 µM

Structure (SMILES): O=C(NC1CCN(CCc2c[nH]c3ccccc23)CC1)c1ccccc1 [NCGC00165810-02]
- VEGF_ADSC\ECFC Angio CD31 TubeArea IC50/EC50 [1]: > 10 µM
- Basal_Viability ATP DLD-1 IC50/EC50 ([2]; assay number 23, basal): > 20 µM
- Basal_Viability ATP SW480 IC50/EC50 ([11]; assay number 24, basal): > 20 µM
- GSK3b inh pretreated_Viability ATP HCT116 IC50/EC50 [4, 12]: > 20 µM
- Basal_Viability ATP Colo 320 IC50/EC50 ([5]; assay number 27, basal): > 20 µM
- Basal_Viability ATP HT-29 IC50/EC50 ([6]; assay number 28, basal): > 20 µM
- Basal_Viability ATP RKO IC50/EC50 ([7]; assay number 29, basal): > 20 µM
- Basal_Viability ATP SNU-C1 IC50/EC50 ([8]; assay number 30, basal): > 20 µM
- VEGF_ADSC\ECFC Angio Hoechst NucArea IC50/EC50 [9]: > 10 µM

Structure (SMILES): CCN1/C(=C/C=C/c2sc3ccccc3[n+]2CC)Sc2ccccc21.[I-] [NCGC00166288-02]
- IC50/EC50, Hela CellCycMod PI 2N (assay number 14) ([10]; 2N): 8.506 µM
- IC50/EC50, Hela CellCycMod PI 4N (assay number 16) ([10]; 4N): > 10 µM
- IC50/EC50, Hela CellCycMod PI Cell Number (assay number 18) ([10]; Cell Number): 0.03604 µM
- IC50/EC50, Hela CellCycMod PI MI (assay number 17) ([10]; MI): 4.476 µM
- IC50/EC50, Hela CellCycMod PI S Phase (assay number 15) ([10]; S Phase): > 10 µM
- IC50/EC50, Basal_Viability ATP DLD-1 (assay number 23) ([2]; basal): 0.0148 µM
- IC50/EC50, Basal_Viability ATP SW480 (assay number 24) ([11]; basal): 0.172 µM
- IC50/EC50, Basal_Viability ATP HCT116 (assay number 25) ([3]; basal): 0.00957 µM
- IC50/EC50, GSK3b inh pretreated_Viability ATP HCT116 (assay number 26) ([4]; GSK3b inh pretreated): 0.00875 µM
- IC50/EC50, Basal_Viability ATP Colo 320 (assay number 27) ([5]; basal): 0.562 µM
- IC50/EC50, Basal_Viability ATP HT-29 (assay number 28) ([6]; basal): 0.00838 µM
- IC50/EC50, Basal_Viability ATP RKO (assay number 29) ([7]; basal): 0.00898 µM
- IC50/EC50, Basal_Viability ATP SNU-C1 (assay number 30) ([8]; basal): 0.01721 µM

Structure (SMILES): O=C(c1cc(O)c(O)c(O)c1)c1ccc(O)c(O)c1O [NCGC00249050-02]
- Hela CellCycMod PI 2N IC50/EC50 [10]: > 10 µM
- Hela CellCycMod PI 4N IC50/EC50 [10]: > 10 µM
- Hela CellCycMod PI Cell Number IC50/EC50 [10]: > 10 µM
- Hela CellCycMod PI MI IC50/EC50 [10]: > 10 µM
- Hela CellCycMod PI S Phase IC50/EC50 [10]: > 10 µM
- Basal_Viability ATP DLD-1 IC50/EC50 [2]: 11.8874 µM
- Basal_Viability ATP SW480 IC50/EC50 [11]: 9.9516 µM
- Basal_Viability ATP HCT116 IC50/EC50 [3]: 16.3036 µM
- GSK3b inh pretreated_Viability ATP HCT116 IC50/EC50 [4]: 0.06911 µM
- Basal_Viability ATP Colo 320 IC50/EC50 [5]: 9.382 µM
- Basal_Viability ATP HT-29 IC50/EC50 [6]: 9.4494 µM
- Basal_Viability ATP RKO IC50/EC50 [7]: 0.1924 µM
- Basal_Viability ATP SNU-C1 IC50/EC50 [8]: 12.767 µM

Structure (SMILES): O=Cc1ccc(O)c(O)c1O [NCGC00262933-01]
- IC50/EC50, Hela CellCycMod PI 2N (assay number 14) [10]: > 10 µM
- IC50/EC50, Hela CellCycMod PI 4N (assay number 16) [10]: > 10 µM
- IC50/EC50, Hela CellCycMod PI Cell Number (assay number 18) [10]: > 10 µM
- IC50/EC50, Hela CellCycMod PI MI (assay number 17) [10]: > 10 µM
- IC50/EC50, Hela CellCycMod PI S Phase (assay number 15) [10]: > 10 µM
- IC50/EC50, Basal_Viability ATP DLD-1 (assay number 23) [2]: > 20 µM
- IC50/EC50, Basal_Viability ATP SW480 (assay number 24) [11]: 11.3319 µM
- IC50/EC50, Basal_Viability ATP HCT116 (assay number 25) [3]: > 20 µM
- IC50/EC50, GSK3b inh pretreated_Viability ATP HCT116 (assay number 26) [4]: 0.1412 µM
- IC50/EC50, Basal_Viability ATP Colo 320 (assay number 27) [5]: 9.0837 µM
- IC50/EC50, Basal_Viability ATP HT-29 (assay number 28) [6]: > 20 µM
- IC50/EC50, Basal_Viability ATP RKO (assay number 29) [7]: 6.232 µM
- IC50/EC50, Basal_Viability ATP SNU-C1 (assay number 30) [8]: > 20 µM
